Earlier results, collected in publication PMC9248236 (Nature chemical biology, 2022).

System: IR
Conditions: competition binding assays, substitution at B24 of insulin

For “IleB24: human insulin analog with PheB24 substituted by isoleucine (literature)”, the “affinity for IR lower than native PheB24 human insulin” value is given as 2–3 fold.

In the case of “LeuB24: human insulin analog with PheB24 substituted by leucine (literature)”, the “affinity for IR lower than native PheB24 human insulin” value is listed as 2–3 fold.
